Data reported in US7074789B2, “Kinase inhibitors” (Amgen Inc., priority 1999, dated 2006).

Experiments:
Type in all cases: biochemical
[1] = biological target: T1, Zap-70 (Homo sapiens, UniProt P43403); test: Kinase inhibition assay (33P transfer), Zap-70; details: read-out: Zap-1
T1 construct: Kinases are expressed as either kinase domains or full length constructs; made in house
T1 sequence (P43403 1-619): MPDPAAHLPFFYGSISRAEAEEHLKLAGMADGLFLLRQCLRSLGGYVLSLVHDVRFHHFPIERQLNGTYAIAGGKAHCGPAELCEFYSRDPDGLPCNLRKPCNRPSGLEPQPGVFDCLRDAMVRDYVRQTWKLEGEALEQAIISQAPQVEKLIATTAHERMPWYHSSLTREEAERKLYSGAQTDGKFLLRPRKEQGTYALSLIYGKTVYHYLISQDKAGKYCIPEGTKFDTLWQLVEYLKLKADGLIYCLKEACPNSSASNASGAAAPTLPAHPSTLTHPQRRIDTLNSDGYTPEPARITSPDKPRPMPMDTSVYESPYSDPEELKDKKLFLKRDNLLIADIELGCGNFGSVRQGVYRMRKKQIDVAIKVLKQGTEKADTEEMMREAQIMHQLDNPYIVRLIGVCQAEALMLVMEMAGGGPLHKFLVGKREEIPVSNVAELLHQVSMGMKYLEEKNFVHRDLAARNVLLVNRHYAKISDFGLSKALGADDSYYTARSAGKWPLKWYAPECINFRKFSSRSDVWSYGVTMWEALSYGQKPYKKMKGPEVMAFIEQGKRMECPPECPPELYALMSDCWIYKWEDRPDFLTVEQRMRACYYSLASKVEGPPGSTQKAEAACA
How it was run: (§1)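 GST/His-tagged kinase (domain or full length; E. coli or baculovirus) + [33P]ATP on plates coated with poly(Glu,Tyr) 4:1 or poly(Arg,Ser) 3:1; incubate, wash 0.5% H3PO4, add scintillant, count.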

[2] = biological target: T2, ErbB2 (Homo sapiens, UniProt P04626); test: Kinase inhibition assay (33P transfer), ErbB2; details: read-out: ErbB2-2
T2 construct: Kinases are expressed as either kinase domains or full length constructs; made in house
T2 sequence (P04626 23-1255, species assumed): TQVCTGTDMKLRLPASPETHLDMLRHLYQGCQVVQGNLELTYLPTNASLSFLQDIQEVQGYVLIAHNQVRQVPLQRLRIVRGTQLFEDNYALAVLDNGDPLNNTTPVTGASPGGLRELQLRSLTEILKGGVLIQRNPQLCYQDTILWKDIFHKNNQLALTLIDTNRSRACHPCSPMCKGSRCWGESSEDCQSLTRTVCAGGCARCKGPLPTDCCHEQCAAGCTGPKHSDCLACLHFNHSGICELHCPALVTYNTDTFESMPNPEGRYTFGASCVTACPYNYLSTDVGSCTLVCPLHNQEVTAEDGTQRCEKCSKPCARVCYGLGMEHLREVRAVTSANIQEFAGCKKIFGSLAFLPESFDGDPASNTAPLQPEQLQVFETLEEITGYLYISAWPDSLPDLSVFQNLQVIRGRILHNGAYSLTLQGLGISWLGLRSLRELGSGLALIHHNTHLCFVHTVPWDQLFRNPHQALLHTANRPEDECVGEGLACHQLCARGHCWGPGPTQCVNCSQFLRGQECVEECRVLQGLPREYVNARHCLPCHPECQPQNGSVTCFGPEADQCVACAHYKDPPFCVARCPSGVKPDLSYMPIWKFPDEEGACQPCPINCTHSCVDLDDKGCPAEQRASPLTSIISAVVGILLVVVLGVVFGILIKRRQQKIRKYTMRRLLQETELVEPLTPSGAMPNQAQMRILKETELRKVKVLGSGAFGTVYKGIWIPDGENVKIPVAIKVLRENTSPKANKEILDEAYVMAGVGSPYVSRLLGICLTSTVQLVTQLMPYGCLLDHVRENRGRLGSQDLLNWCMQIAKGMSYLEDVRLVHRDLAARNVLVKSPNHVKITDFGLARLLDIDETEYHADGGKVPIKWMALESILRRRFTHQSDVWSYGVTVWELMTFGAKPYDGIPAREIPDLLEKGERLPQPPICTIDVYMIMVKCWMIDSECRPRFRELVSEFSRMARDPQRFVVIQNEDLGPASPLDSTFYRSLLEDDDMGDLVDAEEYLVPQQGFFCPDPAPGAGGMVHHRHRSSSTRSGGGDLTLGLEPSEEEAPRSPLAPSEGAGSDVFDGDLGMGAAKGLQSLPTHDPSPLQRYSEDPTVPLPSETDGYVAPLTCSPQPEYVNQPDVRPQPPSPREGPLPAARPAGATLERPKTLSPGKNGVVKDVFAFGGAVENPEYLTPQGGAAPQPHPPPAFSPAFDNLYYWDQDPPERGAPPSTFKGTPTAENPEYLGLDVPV
Text: The inhibitor compounds described herein are screened in the following manner. Kinases suitable for use in the following protocol to determine kinase activity of the compounds described herein include, -but are not limited to: Lck, Lyn, Src, Fyn, Syk, Zap-70, Itk, Tec, Btk, EGFR, ErbB2, Kdr, Flt-1, Flt-3, Tek, c-Met, InsR, and AKT.
Kinases are expressed as either kinase domains or full length constructs fused to glutathione S-transferase (GST) or polyHistidine tagged fusion proteins in either E. colior Baculovirus-High Five expression systems. They are purified to near homogeneity by affinity chromatography essentially as previously described (Lehr et al., 1996; Gish et al., 1995). In some instances, kinases are co-expressed or mixed with purified or partially purified regulatory polypeptides prior to measurement of activity.
Kinase activity and inhibition are measured essentially by established protocols (Braunwalder et al., 1996). Briefly, The transfer of ^33PO4 from ATP to the synthetic substrates poly(Glu, Tyr) 4:1 or poly(Arg, Ser) 3:1 attached to the bioactive surface of microtiter plates serves as the basis to evaluate enzyme activity. After an incubation period, the amount of phosphate transferred is measured by first washing the plate with 0.5% phosphoric acid, adding liquid scintillant, and then counting in a liquid scintillation detector. The IC50 is determined by the concentration of compound that causes a 50% reduction in the amount of […] incorporated onto the substrate bound to the plate.

[3] = biological target: T3, Kdr (Homo sapiens, UniProt P35968); test: Kinase inhibition assay (33P transfer), Kdr; details: read-out: KDR-1
T3 construct: Kinases are expressed as either kinase domains or full length constructs; made in house
T3 sequence (P35968 20-1356, species assumed): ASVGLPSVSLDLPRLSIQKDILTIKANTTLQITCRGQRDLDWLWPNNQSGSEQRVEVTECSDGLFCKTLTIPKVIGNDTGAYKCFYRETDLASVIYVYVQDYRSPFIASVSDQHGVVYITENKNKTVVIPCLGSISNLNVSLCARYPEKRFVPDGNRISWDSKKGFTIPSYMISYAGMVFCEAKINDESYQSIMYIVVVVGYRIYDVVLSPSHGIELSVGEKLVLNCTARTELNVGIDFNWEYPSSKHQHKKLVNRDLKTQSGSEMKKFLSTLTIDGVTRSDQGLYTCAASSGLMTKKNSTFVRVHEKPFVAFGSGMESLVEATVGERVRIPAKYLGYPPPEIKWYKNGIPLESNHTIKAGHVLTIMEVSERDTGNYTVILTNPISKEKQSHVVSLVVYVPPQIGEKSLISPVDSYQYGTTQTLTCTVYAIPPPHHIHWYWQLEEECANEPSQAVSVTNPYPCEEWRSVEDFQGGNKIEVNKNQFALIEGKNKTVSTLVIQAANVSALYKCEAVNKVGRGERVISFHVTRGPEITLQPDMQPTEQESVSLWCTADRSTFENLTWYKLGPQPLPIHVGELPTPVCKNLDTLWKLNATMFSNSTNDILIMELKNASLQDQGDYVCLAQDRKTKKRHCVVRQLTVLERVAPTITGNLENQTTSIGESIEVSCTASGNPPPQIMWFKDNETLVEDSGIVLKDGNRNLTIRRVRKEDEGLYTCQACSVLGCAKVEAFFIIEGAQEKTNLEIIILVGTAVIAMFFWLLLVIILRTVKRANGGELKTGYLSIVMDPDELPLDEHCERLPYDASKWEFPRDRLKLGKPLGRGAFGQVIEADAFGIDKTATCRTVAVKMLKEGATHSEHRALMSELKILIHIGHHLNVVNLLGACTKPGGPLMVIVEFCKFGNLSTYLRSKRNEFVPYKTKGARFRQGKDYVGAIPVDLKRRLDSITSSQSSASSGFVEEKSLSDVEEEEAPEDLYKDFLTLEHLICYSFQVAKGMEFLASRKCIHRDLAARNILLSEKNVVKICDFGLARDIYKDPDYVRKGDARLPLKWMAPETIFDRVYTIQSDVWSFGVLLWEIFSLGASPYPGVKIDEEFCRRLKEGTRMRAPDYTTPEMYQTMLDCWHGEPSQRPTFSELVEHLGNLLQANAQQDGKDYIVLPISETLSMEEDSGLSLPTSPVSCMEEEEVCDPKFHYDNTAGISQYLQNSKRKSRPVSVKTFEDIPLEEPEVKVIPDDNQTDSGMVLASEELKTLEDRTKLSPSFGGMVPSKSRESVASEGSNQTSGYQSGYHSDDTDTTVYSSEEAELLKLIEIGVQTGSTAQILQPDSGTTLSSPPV
How it was run: as §1

[4] = biological target: T4, Itk (Homo sapiens, UniProt Q08881); test: Kinase inhibition assay (33P transfer), Itk; details: read-out: Itk-1
T4 construct: Kinases are expressed as either kinase domains or full length constructs; made in house
T4 sequence (Q08881 1-620): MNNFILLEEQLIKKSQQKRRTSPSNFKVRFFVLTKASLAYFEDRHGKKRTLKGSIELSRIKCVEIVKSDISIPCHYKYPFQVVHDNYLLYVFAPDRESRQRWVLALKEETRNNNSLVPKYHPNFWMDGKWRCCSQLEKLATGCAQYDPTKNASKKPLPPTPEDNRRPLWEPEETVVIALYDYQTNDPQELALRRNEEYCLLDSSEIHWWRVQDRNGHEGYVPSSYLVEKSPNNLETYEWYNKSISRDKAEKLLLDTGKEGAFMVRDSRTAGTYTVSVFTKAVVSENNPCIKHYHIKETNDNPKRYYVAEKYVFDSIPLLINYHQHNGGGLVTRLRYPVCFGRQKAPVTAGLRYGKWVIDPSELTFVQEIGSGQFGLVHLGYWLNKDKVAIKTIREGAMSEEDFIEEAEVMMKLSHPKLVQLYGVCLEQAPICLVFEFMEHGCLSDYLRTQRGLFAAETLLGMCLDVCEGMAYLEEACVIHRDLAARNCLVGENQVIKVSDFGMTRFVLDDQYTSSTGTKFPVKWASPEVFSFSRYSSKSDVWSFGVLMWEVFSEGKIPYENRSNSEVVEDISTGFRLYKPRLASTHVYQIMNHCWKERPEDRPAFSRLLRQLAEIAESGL
How it was run: (§2)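 Kinase domains or full-length enzymes, GST- or polyHis-tagged, were expressed in E. coli or baculovirus High Five cells and affinity-purified. Transfer of 33PO4 from ATP onto plate-bound poly(Glu,Tyr) 4:1 or poly(Arg,Ser) 3:1 was counted by liquid scintillation after a 0.5% phosphoric acid wash. IC50 = concentration halving incorporation.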

[5] = biological target: T5, c-Met (Homo sapiens, UniProt P08581); test: Kinase inhibition assay (33P transfer), c-Met; details: Table 2, kinase inhibition class; read-out: Met-1
T5 construct: Kinases are expressed as either kinase domains or full length constructs; made in house
How it was run: as §2

[6] = biological target: T6, AKT (Homo sapiens, UniProt Q9Y243); test: Kinase inhibition assay (33P transfer), AKT; details: Table 2, kinase inhibition class; read-out: AKT3-1
T6 construct: Kinases are expressed as either kinase domains or full length constructs; made in house
T6 sequence (Q9Y243 whole entry, the tested form may be a part): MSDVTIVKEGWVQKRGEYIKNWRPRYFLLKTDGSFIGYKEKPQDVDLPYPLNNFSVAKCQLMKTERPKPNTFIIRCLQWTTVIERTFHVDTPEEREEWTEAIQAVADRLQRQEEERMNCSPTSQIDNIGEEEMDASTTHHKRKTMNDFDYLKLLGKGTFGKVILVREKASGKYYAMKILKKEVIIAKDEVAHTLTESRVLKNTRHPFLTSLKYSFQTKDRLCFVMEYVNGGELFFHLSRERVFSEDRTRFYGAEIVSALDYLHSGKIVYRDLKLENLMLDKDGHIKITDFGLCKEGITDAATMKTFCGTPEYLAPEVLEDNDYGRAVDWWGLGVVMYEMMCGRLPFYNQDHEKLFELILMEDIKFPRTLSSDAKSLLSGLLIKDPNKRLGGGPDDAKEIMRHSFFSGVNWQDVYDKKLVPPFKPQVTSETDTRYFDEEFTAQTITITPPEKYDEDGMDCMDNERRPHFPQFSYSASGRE
How it was run: as §1

[7] = biological target: T7, IGFR-1 (Homo sapiens, UniProt P08069); test: Kinase inhibition assay, IGFR-1 (Table 2); details: Table 2, kinase inhibition class
T7 construct: Kinases are expressed as either kinase domains or full length constructs; made in house

[8] = biological target: T8, EGFR (Homo sapiens, UniProt P00533); test: Kinase inhibition assay (33P transfer), EGFR; details: Table 2, kinase inhibition class; read-out: EGFR-1
T8 construct: Kinases are expressed as either kinase domains or full length constructs; made in house
T8 sequence (P00533 25-1210, species assumed): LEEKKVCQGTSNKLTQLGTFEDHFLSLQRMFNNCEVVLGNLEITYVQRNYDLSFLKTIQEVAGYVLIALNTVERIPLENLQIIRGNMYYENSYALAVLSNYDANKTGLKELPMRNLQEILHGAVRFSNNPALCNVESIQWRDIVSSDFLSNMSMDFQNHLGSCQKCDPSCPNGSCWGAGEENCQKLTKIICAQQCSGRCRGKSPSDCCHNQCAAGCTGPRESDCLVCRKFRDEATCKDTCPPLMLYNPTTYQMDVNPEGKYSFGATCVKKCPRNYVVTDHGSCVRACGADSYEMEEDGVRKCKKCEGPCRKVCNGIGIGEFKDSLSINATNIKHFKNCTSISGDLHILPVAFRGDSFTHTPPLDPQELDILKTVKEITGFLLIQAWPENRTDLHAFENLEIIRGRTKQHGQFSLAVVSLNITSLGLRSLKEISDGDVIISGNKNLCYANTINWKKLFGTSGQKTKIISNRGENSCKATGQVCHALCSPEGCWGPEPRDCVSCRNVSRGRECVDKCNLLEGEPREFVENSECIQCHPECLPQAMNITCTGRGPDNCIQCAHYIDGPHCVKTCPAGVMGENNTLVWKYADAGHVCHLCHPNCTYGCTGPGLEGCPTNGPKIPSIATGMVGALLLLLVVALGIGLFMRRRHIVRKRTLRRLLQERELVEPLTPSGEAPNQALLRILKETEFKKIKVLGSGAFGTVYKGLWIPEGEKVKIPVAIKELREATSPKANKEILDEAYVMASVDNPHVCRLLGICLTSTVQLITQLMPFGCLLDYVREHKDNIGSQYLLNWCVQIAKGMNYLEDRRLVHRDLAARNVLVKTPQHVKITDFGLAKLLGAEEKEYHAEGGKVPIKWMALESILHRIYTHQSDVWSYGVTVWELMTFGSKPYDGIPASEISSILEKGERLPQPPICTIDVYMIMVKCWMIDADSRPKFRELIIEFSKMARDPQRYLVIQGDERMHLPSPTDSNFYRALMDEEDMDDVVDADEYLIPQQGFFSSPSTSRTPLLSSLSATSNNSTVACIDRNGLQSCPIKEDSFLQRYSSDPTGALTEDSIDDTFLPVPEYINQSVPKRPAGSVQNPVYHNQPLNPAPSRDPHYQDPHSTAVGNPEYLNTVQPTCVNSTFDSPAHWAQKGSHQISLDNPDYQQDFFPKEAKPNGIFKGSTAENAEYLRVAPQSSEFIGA
How it was run: as §2

[9] = biological target: T9, PDGFRB (Homo sapiens, UniProt P09619); test: Kinase inhibition assay (33P transfer), PDGFRB; details: read-out: PDGFRB-1
T9 construct: Kinases are expressed as either kinase domains or full length constructs; made in house

[10] = biological target: T10, Lck (Homo sapiens, UniProt P06239); test: Kinase inhibition assay (33P transfer), Lck; details: read-out: Lck-1
T10 construct: Kinases are expressed as either kinase domains or full length constructs; made in house
T10 sequence (P06239 whole entry, species assumed, the tested form may be a part): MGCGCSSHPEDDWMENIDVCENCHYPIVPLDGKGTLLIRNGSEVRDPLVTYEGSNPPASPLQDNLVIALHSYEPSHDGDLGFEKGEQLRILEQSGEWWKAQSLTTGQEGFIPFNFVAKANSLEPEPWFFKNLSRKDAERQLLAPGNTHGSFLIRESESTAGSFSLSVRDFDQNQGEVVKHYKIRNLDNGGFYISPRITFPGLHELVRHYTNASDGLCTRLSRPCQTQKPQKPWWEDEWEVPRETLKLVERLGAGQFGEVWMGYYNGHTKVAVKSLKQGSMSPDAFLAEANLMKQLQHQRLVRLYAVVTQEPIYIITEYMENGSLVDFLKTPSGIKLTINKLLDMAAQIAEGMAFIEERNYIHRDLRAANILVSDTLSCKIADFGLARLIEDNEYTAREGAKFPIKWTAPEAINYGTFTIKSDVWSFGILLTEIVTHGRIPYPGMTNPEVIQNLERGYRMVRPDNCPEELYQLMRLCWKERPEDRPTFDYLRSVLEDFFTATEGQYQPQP
How it was run: as §1

| IC50 [1] [µM] | IC50 [2] [µM] | IC50 [3] [µM] | IC50 [4] [µM] | IC50 [5] [µM] | IC50 [6] [µM] | IC50 [7] [µM] | IC50 [8] [µM] | IC50 [9] [µM] | IC50 [10] [µM] | Structure (SMILES) |
| --- | --- | --- | --- | --- | --- | --- | --- | --- | --- | --- |
| > 8.53 | > 8.53 | 0.758 to 4.55 | > 8.53 | > 8.53 | > 8.53 | > 8.53 | > 8.53 | 0.758 to 4.55 | 0.758 to 4.55 | COc1ccc([C@@H](C)Nc2nc3ccccc3n2-c2ncnc(Nc3cc(OC)c(OC)c(OC)c3)n2)cc1 [Compound 1045] |
| > 11.6 | > 11.6 | > 11.6 | > 11.6 | > 11.6 | > 11.6 | > 11.6 | > 11.6 | 6.21 to 9.06 | > 11.6 | COc1ccc(Nc2ncnc(NCCCN3CCCCC3C)n2)cc1OC (centres unmarked) [Compound 782] |
| > 9.67 | 7.52 to 9.67 | < 0.859 | > 9.67 | > 9.67 | > 9.67 | > 9.67 | 0.859 to 5.16 | < 0.859 | 0.859 to 5.16 | COC(=O)Cc1cccc(Nc2ncnc(-n3c(NCc4ccccc4)nc4ccccc43)n2)c1 [Compound 545] |
| > 12.2 | < 1.08 | < 1.08 | > 12.2 | 1.08 to 6.49 | > 12.2 | > 12.2 | < 1.08 | 6.49 to 9.46 | > 12.2 | CN(c1cccc(Cl)c1)c1ncnc(Nc2cccc(CC(=O)O)c2)n1 [Compound 706] |
| > 9.08 | > 9.08 | < 0.807 | > 9.08 | > 9.08 | > 9.08 | > 9.08 | > 9.08 | > 9.08 | > 9.08 | COC(=O)Cc1cccc(Nc2ncnc(-n3c(NCc4ccc(OC)cc4)nc4ccccc43)n2)c1 [Compound 548] |
| > 14.3 | > 14.3 | > 14.3 | > 14.3 | > 14.3 | > 14.3 | > 14.3 | < 1.27 | > 14.3 | > 14.3 | CN(c1cccc(Cl)c1)c1ncnc(Nc2ncccn2)n1 [Compound 757] |
| > 11.2 | < 0.999 | 0.999 to 6 | 8.74 to 11.2 | 8.74 to 11.2 | > 11.2 | 0.999 to 6 | < 0.999 | 0.999 to 6 | > 11.2 | O=C(O)Cc1cccc(Nc2ncnc(Nc3cccc(Br)c3)n2)c1 [Compound 541] |
| > 12.2 | 1.08 to 6.49 | 9.46 to 12.2 | > 12.2 | > 12.2 | > 12.2 | > 12.2 | < 1.08 | > 12.2 | > 12.2 | CN(c1cccc(Cl)c1)c1ncnc(Nc2ccc(CC(=O)O)cc2)n1 [Compound 705] |
| > 14.1 | > 14.1 | > 14.1 | > 14.1 | > 14.1 | > 14.1 | > 14.1 | 1.25 to 7.5 | > 14.1 | > 14.1 | CN(c1cccc(Cl)c1)c1ncnc(NCC2CCCO2)n1 (centres unmarked) [Compound 739] |
| > 8.95 | 0.796 to 4.78 | 0.796 to 4.78 | 0.796 to 4.78 | 6.96 to 8.95 | > 8.95 | 0.796 to 4.78 | 0.796 to 4.78 | < 0.796 | < 0.796 | COc1cc(Nc2ncnc(Nc3ccc(OCC(=O)Nc4ccccc4)cc3)n2)cc(OC)c1OC [Compound 623] |
| > 13.5 | > 13.5 | > 13.5 | > 13.5 | > 13.5 | > 13.5 | > 13.5 | > 13.5 | > 13.5 | > 13.5 | COc1ccc(Nc2ncnc(NCCNC(C)=O)n2)cc1OC [Compound 784] |
| > 12.5 | > 12.5 | > 12.5 | > 12.5 | > 12.5 | > 12.5 | > 12.5 | 1.11 to 6.66 | > 12.5 | > 12.5 | CN(c1cccc(Cl)c1)c1ncnc(N(C)c2cccc(Cl)c2)n1 [Compound 702] |
| > 8.64 | 0.768 to 4.61 | 4.61 to 6.72 | > 8.64 | > 8.64 | > 8.64 | 6.72 to 8.64 | > 8.64 | 0.768 to 4.61 | > 8.64 | COc1cc(Nc2ncnc(-n3c(Nc4cccc5cccnc45)nc4ccccc43)n2)cc(OC)c1OC [Compound 588] |
| > 8.78 | 0.78 to 4.68 | < 0.78 | 4.68 to 6.83 | > 8.78 | > 8.78 | 4.68 to 6.83 | > 8.78 | 0.78 to 4.68 | < 0.78 | COc1cc(Nc2ncnc(-n3c(Nc4ccc(N(C)C)cc4)nc4ccccc43)n2)cc(OC)c1OC [Compound 1051] |
| > 13.2 | > 13.2 | > 13.2 | > 13.2 | > 13.2 | > 13.2 | > 13.2 | < 1.17 | > 13.2 | > 13.2 | COc1ccc(Nc2ncnc(N(C)c3cccc(Cl)c3)n2)cc1 [Compound 743] |
| 10.2 to 13.1 | 6.99 to 10.2 | 1.16 to 6.99 | 1.16 to 6.99 | 1.16 to 6.99 | 1.16 to 6.99 | < 1.16 | < 1.16 | 1.16 to 6.99 | 1.16 to 6.99 | Cc1cccc(Nc2ncnc(Nc3cc(-c4ccccc4)n[nH]3)n2)c1 [Compound 1012] |
| 9.95 to 12.8 | > 12.8 | > 12.8 | > 12.8 | > 12.8 | 9.95 to 12.8 | > 12.8 | < 1.14 | 6.82 to 9.95 | > 12.8 | CN(c1cccc(Cl)c1)c1ncnc(Nc2ccc3cn[nH]c3c2)n1 [Compound 718] |
